# Values of other authors as cited in PMC7401249 (Marine Drugs, 2020).
# Entries after “also recorded” stand apart in the source; their conditions may differ.
# Assays:
# [1] = test system: hCaV3.2
# [2] = test system: NaV1.7
# [3] = test system: CaV3.1
Substance,hCaV3.2 current block among three CaV3.x subtypes [1],NaV1.7 block [2],inhibition of CaV3.1 current over CaV3.2 [3]
ProTx-II,selectively block the hCaV3.2 current,NaV1.7 selective blocker; also recorded: inhibits NaV1.7,–
ProTx-I,–,–,selective inhibition
